# Literature values as cited in patent publication US11576379B2, “Antimicrobial composition comprising alkylated polyvinylpyrrolidone polymer” (The Procter & Gamble Company, priority 2019, dated 2023).
smiles,measurement,value
"CC(=O)O.CC(=O)O.NC(=N\CCCCCC/N=C(N)/N=C(\N)Nc1ccc(Cl)cc1)/N=C(\N)Nc1ccc(Cl)cc1 [Chlorhexidine diaceate, Chlorhexidine diacetate]",Solubility in water,~1%
